Consider one compound from BindingDB's records for patent US20240166639 (Leukos Biotech, 2024).

Assay [1] addresses 5-hydroxytryptamine receptor 1B (Homo sapiens, UniProt P28222). Kind of assay: Binding at Human Serotonin Receptors Competition Binding in Human 5-HT1B Receptor Assay. As for the experimental part: Serotonin 5-HT1B receptor competition binding experiments were carried out in a polypropylene 96-well plate. […] The reaction mixture (Vt: 250 μl/well) was incubated at 25° C. for 90 min, 200 μL was transfered to GF/C 96-well plate (Millipore, Madrid, Spain) pretreated with 0.5% of PEI and treated with binding buffer (Tris-HCl 50 mM, EDTA 1 mM, MgCl2 10 mM, pH=7.4), after was filtered and washed four times with 250 μl wash buffer (Tris-HCl 50 mM, pH=7.4), before measuring in a microplate beta scintillation counter (Microbeta Trilux, PerkinElmer, Madrid, Spain).

For assay [2], the target named is 5-hydroxytryptamine receptor 2A (Homo sapiens, UniProt P28223). Kind of assay: Competition Binding in Human 5-HT2A Receptor. The protocol:
Serotonin 5-HT2A receptor competition binding experiments were carried out in a polypropilene 96-well plate. In each well was incubated 80 μg of membranes from CHO-5-HT2A cell line prepared in the laboratory (protein concentration=4337 μg/ml), 1 nM [3H]-Ketanserin (47.3 Ci/mmol, 1 mCi/ml, Perkin Elmer NET791250UC) and compounds studied and standard. Non-specific binding was determined in the presence of Methysergide 1 μM (Sigma M137). The reaction mixture (Vt: 250 μl/well) was incubated at 37° C. for 30 min, 200 μL was transfered to GF/B 96-well plate (Millipore, Madrid, Spain) pretreated with 0.5% of PEI and treated with binding buffer (Tris-HCl 50 mM, pH=7.4), after was filtered and washed six times with 250 μl wash buffer (Tris-HCl 50 mM, pH=6.6), before measuring in a microplate beta scintillation counter (Microbeta Trilux, PerkinElmer, Madrid, Spain).

5-hydroxytryptamine receptor 1B, sequence (P28222 whole entry): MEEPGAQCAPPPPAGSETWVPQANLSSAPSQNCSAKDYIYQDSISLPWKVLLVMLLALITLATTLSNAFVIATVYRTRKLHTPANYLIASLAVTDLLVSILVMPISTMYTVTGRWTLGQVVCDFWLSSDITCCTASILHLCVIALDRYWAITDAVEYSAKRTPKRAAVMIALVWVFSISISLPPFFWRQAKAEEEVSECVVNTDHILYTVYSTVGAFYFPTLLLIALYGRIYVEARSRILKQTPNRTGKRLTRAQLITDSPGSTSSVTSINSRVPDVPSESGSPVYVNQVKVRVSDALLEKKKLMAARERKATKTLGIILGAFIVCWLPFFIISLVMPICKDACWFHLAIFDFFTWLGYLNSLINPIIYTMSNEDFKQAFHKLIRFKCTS
5-hydroxytryptamine receptor 2A, sequence (P28223 whole entry): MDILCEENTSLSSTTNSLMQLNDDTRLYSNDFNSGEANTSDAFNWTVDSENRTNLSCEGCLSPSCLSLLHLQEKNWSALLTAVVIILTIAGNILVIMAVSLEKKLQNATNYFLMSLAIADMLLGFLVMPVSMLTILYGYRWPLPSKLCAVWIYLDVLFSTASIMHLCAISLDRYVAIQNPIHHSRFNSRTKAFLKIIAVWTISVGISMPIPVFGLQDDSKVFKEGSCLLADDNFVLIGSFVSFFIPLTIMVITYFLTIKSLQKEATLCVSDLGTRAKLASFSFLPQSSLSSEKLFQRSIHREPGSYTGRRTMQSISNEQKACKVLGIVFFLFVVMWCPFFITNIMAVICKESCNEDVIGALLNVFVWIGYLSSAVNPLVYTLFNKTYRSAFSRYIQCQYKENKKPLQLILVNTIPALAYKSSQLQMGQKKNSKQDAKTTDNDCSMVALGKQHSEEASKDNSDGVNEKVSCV

For `Cc1nc(-c2ccc(-c3ccc(C(=O)Nc4cc(OCCN(C)C)c(Br)cn4)cn3)c(C3CC3)c2)no1` [US20240166639, Example 39], the inhibition constant Ki (as a rule, the dissociation constant of the complex between target and ligand, obtained from inhibition or displacement) in assay [1] turned out to be 0.0004 µM; in assay [2] it was 2.5 µM.
